What was measured:
Details in all cases: Compound concentration 10 µM
[1] = target: 5-hydroxytryptamine receptor 1D (Homo sapiens) (UniProt P28221)
[2] = target: Histamine H4 receptor (Homo sapiens) (UniProt Q9H3N8)
[3] = target: Delta-type opioid receptor (Homo sapiens) (UniProt P41143)
[4] = target: T1, Alpha-1D adrenergic receptor (Homo sapiens) (UniProt P25100)
T1 sequence (whole entry): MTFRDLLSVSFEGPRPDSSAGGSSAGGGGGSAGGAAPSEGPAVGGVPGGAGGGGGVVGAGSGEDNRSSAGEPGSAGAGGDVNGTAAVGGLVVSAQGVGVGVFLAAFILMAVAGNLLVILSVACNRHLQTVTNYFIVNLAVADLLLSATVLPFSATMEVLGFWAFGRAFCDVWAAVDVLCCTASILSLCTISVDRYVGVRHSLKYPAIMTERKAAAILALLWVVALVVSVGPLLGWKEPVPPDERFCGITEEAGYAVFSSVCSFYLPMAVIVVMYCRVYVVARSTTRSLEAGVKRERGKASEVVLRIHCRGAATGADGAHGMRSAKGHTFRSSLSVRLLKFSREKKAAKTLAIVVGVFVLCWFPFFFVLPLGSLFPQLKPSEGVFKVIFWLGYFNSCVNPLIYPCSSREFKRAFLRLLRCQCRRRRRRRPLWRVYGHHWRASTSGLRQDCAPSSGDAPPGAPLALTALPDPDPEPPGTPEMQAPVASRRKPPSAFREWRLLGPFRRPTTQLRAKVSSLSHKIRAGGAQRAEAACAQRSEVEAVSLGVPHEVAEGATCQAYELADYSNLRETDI

[5] = target: Beta-3 adrenergic receptor (Homo sapiens) (UniProt P13945)
Beta-3 adrenergic receptor (Homo sapiens), sequence (P13945 whole entry, looked up): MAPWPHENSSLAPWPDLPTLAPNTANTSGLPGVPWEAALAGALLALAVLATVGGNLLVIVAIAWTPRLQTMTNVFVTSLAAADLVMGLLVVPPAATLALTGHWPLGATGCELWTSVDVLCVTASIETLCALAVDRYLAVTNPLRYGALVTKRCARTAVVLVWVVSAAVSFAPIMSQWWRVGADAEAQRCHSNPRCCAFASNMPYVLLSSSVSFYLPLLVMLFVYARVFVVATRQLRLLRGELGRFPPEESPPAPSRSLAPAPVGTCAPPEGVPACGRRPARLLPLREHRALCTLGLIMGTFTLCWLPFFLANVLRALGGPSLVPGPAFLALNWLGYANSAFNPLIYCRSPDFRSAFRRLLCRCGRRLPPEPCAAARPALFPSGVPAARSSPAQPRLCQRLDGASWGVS

[6] = target: T2, 5-hydroxytryptamine receptor 2C (Homo sapiens) (UniProt P28335)
T2 sequence (whole entry): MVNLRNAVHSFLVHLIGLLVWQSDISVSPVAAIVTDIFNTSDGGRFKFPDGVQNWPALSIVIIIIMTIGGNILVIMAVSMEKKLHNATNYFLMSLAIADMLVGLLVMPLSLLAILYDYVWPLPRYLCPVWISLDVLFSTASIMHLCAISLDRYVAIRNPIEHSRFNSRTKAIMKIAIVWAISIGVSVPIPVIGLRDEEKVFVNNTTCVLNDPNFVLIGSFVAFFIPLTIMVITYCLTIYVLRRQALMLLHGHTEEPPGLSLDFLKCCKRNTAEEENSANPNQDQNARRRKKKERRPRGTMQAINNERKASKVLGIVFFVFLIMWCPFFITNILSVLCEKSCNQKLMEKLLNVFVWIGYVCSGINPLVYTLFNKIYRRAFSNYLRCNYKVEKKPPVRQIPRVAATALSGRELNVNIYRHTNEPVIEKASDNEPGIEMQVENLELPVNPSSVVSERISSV

[7] = target: Mu-type opioid receptor (Homo sapiens) (UniProt P35372)
Mu-type opioid receptor (Homo sapiens), sequence (P35372 whole entry): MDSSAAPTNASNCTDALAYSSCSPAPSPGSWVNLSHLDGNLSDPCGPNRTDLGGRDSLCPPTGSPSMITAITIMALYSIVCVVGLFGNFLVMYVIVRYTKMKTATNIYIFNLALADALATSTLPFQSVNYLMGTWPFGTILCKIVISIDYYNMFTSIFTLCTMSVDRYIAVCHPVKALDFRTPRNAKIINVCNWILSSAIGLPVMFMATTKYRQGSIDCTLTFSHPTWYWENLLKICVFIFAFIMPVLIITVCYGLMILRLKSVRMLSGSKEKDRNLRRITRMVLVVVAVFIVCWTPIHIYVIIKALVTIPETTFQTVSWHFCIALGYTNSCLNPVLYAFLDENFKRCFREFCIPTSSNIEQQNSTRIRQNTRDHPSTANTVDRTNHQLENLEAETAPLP

[8] = target: T3, Alpha-2B adrenergic receptor (Homo sapiens) (UniProt P18089)
T3 sequence (whole entry): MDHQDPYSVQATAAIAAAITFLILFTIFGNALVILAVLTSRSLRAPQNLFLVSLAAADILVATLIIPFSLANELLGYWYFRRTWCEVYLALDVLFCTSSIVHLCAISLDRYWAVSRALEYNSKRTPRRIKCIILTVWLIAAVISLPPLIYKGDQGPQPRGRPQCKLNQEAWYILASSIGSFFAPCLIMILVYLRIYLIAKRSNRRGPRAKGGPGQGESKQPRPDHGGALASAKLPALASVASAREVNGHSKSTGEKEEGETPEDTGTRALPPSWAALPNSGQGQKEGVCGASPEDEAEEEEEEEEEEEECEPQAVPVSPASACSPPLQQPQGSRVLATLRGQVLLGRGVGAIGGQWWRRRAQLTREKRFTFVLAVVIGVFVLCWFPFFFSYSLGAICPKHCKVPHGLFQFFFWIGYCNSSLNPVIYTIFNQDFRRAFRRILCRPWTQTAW

[9] = target: Beta-2 adrenergic receptor (Homo sapiens) (UniProt P07550)
Beta-2 adrenergic receptor (Homo sapiens), sequence (P07550 whole entry, looked up): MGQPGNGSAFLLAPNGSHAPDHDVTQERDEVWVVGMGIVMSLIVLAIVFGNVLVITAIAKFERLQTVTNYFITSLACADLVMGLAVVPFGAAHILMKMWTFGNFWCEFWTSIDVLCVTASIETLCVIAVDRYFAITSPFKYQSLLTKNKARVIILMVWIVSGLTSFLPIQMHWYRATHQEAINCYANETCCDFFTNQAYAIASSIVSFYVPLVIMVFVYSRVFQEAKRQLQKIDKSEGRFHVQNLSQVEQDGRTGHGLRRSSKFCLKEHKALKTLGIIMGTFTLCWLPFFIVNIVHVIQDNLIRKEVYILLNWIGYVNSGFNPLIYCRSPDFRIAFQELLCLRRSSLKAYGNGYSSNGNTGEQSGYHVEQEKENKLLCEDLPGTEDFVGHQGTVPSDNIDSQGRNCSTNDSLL

[10] = target: 5-hydroxytryptamine receptor 6 (Homo sapiens) (UniProt P50406)
5-hydroxytryptamine receptor 6 (Homo sapiens), sequence (P50406 whole entry): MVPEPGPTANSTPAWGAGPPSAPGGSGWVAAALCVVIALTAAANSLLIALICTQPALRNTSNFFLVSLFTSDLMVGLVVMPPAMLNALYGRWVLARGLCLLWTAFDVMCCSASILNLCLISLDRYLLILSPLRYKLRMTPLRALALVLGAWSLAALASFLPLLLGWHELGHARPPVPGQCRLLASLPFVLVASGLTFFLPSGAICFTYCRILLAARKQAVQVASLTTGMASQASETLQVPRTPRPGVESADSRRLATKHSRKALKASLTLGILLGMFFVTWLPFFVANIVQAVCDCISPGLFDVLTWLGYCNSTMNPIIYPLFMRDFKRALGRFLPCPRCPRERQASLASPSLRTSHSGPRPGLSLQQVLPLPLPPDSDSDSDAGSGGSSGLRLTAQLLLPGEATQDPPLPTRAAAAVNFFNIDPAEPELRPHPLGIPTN

[11] = target: Histamine H3 receptor (Homo sapiens) (UniProt Q9Y5N1)
Histamine H3 receptor (Homo sapiens), sequence (Q9Y5N1 whole entry): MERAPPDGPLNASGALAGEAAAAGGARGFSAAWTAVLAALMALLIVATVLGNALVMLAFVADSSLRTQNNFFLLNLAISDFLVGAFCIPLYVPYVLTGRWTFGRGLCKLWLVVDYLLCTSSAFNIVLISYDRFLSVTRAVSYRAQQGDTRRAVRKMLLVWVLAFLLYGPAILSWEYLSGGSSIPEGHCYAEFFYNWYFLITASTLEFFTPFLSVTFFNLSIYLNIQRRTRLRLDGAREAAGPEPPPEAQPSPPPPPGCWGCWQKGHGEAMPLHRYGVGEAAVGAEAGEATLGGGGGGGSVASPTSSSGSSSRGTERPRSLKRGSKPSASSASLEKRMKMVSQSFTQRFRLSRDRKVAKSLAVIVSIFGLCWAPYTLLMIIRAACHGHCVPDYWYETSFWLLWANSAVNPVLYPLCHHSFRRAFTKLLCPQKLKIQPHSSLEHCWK

[12] = target: 5-hydroxytryptamine receptor 2A (Homo sapiens) (UniProt P28223)
[13] = target: D(1B) dopamine receptor (Homo sapiens) (UniProt P21918)
D(1B) dopamine receptor (Homo sapiens), sequence (P21918 whole entry): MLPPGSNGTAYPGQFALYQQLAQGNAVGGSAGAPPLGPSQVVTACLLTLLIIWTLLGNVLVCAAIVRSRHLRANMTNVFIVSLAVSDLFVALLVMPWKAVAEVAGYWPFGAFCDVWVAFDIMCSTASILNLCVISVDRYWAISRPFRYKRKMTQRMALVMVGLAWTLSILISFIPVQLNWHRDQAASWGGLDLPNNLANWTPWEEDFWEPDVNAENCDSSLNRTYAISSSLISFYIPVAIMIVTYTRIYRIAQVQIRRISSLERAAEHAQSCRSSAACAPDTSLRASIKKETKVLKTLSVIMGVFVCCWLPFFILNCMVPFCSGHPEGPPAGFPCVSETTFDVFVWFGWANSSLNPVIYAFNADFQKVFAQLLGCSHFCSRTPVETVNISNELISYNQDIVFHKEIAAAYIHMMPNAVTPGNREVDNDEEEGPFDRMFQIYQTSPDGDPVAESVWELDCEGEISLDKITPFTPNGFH

[14] = target: Sigma intracellular receptor 2 (Homo sapiens) (UniProt Q5BJF2)
Sigma intracellular receptor 2 (Homo sapiens), sequence (Q5BJF2 whole entry): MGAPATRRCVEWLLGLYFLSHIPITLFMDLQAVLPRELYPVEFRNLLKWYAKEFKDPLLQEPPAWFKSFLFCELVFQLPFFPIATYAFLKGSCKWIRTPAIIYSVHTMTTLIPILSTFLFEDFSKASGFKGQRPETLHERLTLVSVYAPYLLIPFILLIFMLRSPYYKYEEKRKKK

[15] = target: Muscarinic acetylcholine receptor M3 (Homo sapiens) (UniProt P20309)
Muscarinic acetylcholine receptor M3 (Homo sapiens), sequence (P20309 whole entry, looked up): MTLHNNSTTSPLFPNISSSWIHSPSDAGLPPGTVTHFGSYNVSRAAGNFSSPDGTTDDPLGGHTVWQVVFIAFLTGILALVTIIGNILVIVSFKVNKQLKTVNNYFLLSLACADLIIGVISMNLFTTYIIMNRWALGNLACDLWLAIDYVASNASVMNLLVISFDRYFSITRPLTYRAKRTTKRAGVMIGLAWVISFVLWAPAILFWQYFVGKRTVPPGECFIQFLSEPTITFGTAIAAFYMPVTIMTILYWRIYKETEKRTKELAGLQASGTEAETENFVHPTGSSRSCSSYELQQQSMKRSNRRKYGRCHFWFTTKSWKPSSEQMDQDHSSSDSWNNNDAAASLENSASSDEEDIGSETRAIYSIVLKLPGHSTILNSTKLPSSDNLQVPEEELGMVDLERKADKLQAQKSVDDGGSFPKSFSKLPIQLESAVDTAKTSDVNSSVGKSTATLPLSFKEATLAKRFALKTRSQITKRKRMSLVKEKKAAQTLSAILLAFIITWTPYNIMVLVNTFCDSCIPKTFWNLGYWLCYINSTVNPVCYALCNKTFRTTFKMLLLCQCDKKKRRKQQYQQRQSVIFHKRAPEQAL

[16] = target: T4, Muscarinic acetylcholine receptor M1 (Homo sapiens) (UniProt P11229)
T4 sequence (whole entry): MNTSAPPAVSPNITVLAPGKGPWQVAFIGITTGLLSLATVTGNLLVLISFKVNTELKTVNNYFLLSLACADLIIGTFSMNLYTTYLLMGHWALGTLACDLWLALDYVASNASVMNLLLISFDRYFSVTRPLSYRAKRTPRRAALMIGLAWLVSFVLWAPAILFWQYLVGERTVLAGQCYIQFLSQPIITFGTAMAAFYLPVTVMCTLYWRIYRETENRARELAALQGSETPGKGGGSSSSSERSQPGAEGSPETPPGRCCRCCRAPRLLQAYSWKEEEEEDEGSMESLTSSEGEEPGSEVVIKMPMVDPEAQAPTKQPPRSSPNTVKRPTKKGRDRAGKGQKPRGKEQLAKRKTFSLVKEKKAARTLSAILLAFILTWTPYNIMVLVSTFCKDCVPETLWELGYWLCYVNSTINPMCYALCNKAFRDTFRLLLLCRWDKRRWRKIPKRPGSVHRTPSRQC

5-hydroxytryptamine receptor 1D (Homo sapiens), sequence (P28221 whole entry): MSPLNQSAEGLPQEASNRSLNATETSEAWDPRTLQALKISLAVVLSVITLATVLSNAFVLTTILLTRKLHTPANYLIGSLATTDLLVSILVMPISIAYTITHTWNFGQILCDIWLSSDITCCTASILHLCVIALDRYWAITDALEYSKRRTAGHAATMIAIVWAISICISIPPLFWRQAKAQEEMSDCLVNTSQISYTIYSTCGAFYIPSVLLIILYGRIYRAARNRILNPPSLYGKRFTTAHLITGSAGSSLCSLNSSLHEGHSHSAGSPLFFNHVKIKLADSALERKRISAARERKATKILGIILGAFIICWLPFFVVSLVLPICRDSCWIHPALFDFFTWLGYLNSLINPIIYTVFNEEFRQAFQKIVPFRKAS
Delta-type opioid receptor (Homo sapiens), sequence (P41143 whole entry): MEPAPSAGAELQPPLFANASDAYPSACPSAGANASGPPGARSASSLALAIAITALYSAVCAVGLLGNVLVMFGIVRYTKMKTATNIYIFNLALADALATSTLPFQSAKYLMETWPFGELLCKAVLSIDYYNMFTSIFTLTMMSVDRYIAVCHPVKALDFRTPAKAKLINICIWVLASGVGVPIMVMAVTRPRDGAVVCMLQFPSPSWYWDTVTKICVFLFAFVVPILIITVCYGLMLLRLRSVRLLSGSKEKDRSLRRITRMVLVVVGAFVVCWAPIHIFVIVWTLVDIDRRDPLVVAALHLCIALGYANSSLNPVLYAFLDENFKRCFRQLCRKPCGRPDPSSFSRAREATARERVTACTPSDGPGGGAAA
Histamine H4 receptor (Homo sapiens), sequence (Q9H3N8 whole entry): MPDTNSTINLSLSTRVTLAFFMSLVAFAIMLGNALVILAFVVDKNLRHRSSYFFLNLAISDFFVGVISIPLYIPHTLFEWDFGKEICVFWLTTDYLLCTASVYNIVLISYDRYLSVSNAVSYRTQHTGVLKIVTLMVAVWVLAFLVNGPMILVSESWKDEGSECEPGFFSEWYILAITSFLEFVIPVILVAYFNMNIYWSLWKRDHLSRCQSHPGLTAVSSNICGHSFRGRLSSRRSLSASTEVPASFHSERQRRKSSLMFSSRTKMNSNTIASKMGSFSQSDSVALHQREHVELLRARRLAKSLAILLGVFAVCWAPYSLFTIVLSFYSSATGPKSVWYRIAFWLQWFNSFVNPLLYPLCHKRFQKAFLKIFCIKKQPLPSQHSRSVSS

SMILES	inhibition [1] [%]	inhibition [2] [%]	inhibition [3] [%]	inhibition [4] [%]	inhibition [5] [%]	inhibition [6] [%]	inhibition [7] [%]	inhibition [8] [%]	inhibition [9] [%]	inhibition [10] [%]	inhibition [11] [%]	inhibition [12] [%]	inhibition [13] [%]	inhibition [14] [%]	inhibition [15] [%]	inhibition [16] [%]
COc1ccc(S(=O)(=O)N2c3ccc(Cl)cc3[C@](O)(c3ccccc3Cl)[C@@H]2C(=O)N2CCC[C@H]2C(N)=O)cc1OC	6.02	21.7	19	10.8	31.7	21.8	38.8	0.34	6.53	-1.14	7.89	-2.13	–	–	–	–
CCCCN(CC)c1nc(C)nc2c1c(C)cn2-c1c(C)cc(C)cc1C	-0.49	2.86	7.66	16.5	41.7	-7.17	20.1	39.7	-7.68	–	-0.29	9.7	-2.04	78.3	–	–
O=c1ccn([C@@H]2O[C@H](COP(=O)(O)OP(=O)(O)O)[C@@H](O)[C@H]2O)c(=O)[nH]1	-5.04	7.98	14.1	–	15.3	3.57	44	-3.44	-0.48	6.18	7.28	10.7	-4.32	2.62	2.51	–
CCCCCNC(=O)NS(=O)(=O)c1cc([N+](=O)[O-])ccc1NC1CCCCC1	12.4	16.9	8.56	6.55	39.7	11.4	26.7	-2.94	-4.07	12.8	11.4	–	4.44	3.25	16.6	-6.06
CCCCC#Cc1nc(NC)c2ncn([C@@H]3O[C@H](CO)[C@@H](O)[C@H]3O)c2n1	8.46	-7.18	9.12	-1.99	-8.99	17.8	2.4	–	–	2.49	7.95	92.5	–	8.59	13.6	-6.77
Cc1nc(C(=O)N2CCC[C@H]2Cc2nnc(-c3ccccc3)o2)c(-c2ccccc2F)s1	–	-2.37	-2.06	26.4	23.9	4.37	7.98	–	-2.08	17.4	22.7	8.26	–	12.9	-8.01	-9.02
COc1ccc(Br)cc1S(=O)(=O)NC(=O)/C=C/c1ccccc1Cc1ccc2ccccc2c1	12	-5.64	-2.75	16.2	33.2	26.2	22.1	-4.1	-2.54	-2.73	5.89	8.02	-9.64	5.53	12.9	4.85
CC(C)(N)C(=O)N[C@H](COCc1ccccc1)C(=O)N1CCC2(CC1)CN(S(C)(=O)=O)c1ccccc12	30.2	4.09	3.11	9.82	15.2	-2.12	12.8	-5.98	-3.52	5.9	-0.42	6.83	-1.48	21.1	–	–
Cc1cc(NC(=O)Nc2ccc(N(C)C)cc2)c2cc(F)cc(F)c2n1	-2.42	5.25	–	6.71	18.1	20.1	1.4	3.9	16.5	–	28.6	13	–	1.52	–	-7.92
C[C@@H](NCCc1ccc(O)cc1)[C@@H](O)c1ccc(O)cc1 (relative stereo)	–	5.86	17.5	0.11	56.6	-0.38	51.1	5.66	36.5	–	0.59	5.36	–	58.1	18.1	24.4
Cc1c(OCc2cccc(-c3ccc(C(=O)O)cc3)c2)cc2c(c1C)C(=O)C(C1CCCC1)C2 (stereo unspecified)	0.61	14.3	-8.42	60	76.5	6.16	–	–	-5.2	-3.02	31.1	6.01	–	-3.24	34.5	-9.01
COc1ccc(OC(F)(F)F)cc1CN[C@H]1CCCN[C@H]1c1ccccc1	-4.51	1.14	–	15.1	6.31	58.5	41.3	0.54	-1.91	23.8	–	64.8	-8.91	90.5	-8.99	13.7
Cc1csc2c(N[C@@H](C)CN3CCN(S(=O)(=O)c4ccc(Cl)c(Cl)c4)CC3)ncnc12	–	9.69	4.01	-3.91	60.6	–	14.7	-6.72	1.66	12.8	2.97	31	5.96	73.2	-6	6.35
